Tests used:
[1] = system: blackgrass; assay: Test C postemergence; assay type: in vivo, Alopecurus myosuroides; settings: for Plant response rating (scale of 0 to 100 where 0 is no effect and 100 is complete control), Blackgrass: visually evaluated after 13 to 15 days; for Blackgrass plant response rating: scale 0 to 100; for Plant response rating (scale of 0 to 100), Blackgrass: 16 g ai/ha
In short: (§1)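 Greenhouse pot test: preemergence application onto freshly seeded loam/sand mix, postemergence application onto seedlings (1–4 leaves, 2–18 cm) in peat-vermiculite substrate. Responses scored visually 13 to 15 days later relative to controls, where 0 means no effect and 100 means complete control; a dash indicates no result.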

[2] = system: corn; assay: Test A postemergence; assay type: in vivo, Zea mays
In short: (§2)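 Greenhouse test in loam soil/sand blend; compounds formulated in non-phytotoxic solvent with surfactant, applied as preemergence directed soil spray or postemergence to plants 2–10 cm tall at one- to two-leaf stage. Injury rated visually versus untreated controls after approximately 10 days on a 0 (no effect) to 100 (complete control) scale.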

[3] = system: nutsedge, yellow; assay: Test C preemergence; assay type: in vivo, Cyperus esculentus
In short: as §1

[4] = system: galium; assay: Test C postemergence; assay type: in vivo, Galium aparine; settings: for Plant response rating (scale of 0 to 100 where 0 is no effect and 100 is complete control), Galium: visually evaluated after 13 to 15 days; for Galium plant response rating: scale 0 to 100; for Plant response rating (scale of 0 to 100), Galium: 16 g ai/ha
In short: as §1

[5] = system: morningglory; assay: Test C postemergence; assay type: in vivo, Ipomoea coccinea; settings: for Morningglory plant response rating: scale 0 to 100; for Plant response rating (scale of 0 to 100), Morningglory: 16 g ai/ha
In short: as §1

[6] = system: foxtail, giant; assay: Test A postemergence; assay type: in vivo, Setaria faberii
In short: as §2

[7] = system: ryegrass, Italian; assay: Test C preemergence; assay type: in vivo, Lolium multiflorum; settings: preemergence
In short: as §1

[8] = system: galium; assay: Test C preemergence; assay type: in vivo, Galium aparine
In short: as §1

[9] = system: barnyardgrass; assay: Test C postemergence; assay type: in vivo, Echinochloa crus-galli; settings: for Plant response rating (scale of 0 to 100 where 0 is no effect and 100 is complete control), Barnyardgrass: visually evaluated after 13 to 15 days; for Barnyardgrass plant response rating: scale 0 to 100; for Plant response rating (scale of 0 to 100), Barnyardgrass: 16 g ai/ha
In short: as §1

[10] = system: waterhemp; assay: Test C preemergence; assay type: in vivo, Amaranthus rudis
In short: as §1

[11] = system: foxtail, giant; assay: Test C postemergence; assay type: in vivo, Setaria faberii; settings: for Plant response rating (scale of 0 to 100 where 0 is no effect and 100 is complete control), Foxtail, Giant: visually evaluated after 13 to 15 days; for Foxtail, Giant plant response rating: scale 0 to 100; for Plant response rating (scale of 0 to 100), Foxtail, Giant: 16 g ai/ha
In short: as §1

[12] = system: corn; assay: Test C preemergence; assay type: in vivo, Zea mays
In short: as §1

[13] = system: crabgrass, large; assay: Test A preemergence; assay type: in vivo, Digitaria sanguinalis; settings: 0 to 100 scale
In short: as §2

[14] = system: wheat; assay: Test A preemergence; assay type: in vivo, Triticum aestivum; settings: preemergence
In short: as §2

[15] = system: morningglory; assay: Test A postemergence; assay type: in vivo, Ipomoea spp.
In short: as §2

[16] = system: crabgrass, large; assay: Test A postemergence; assay type: in vivo, Digitaria sanguinalis
In short: as §2

[17] = postemergence, 250 g ai/ha, scale 0 to 100 (0 no effect, 100 complete control)
[18] = postemergence, 125 g ai/ha, scale 0 to 100, 0 no effect, 100 complete control
[19] = Postemergence, 500 g ai/ha, 0 to 100 scale (0 no effect, 100 complete control)
[20] = postemergence, 125 g ai/ha, about 10 days, visual rating on 0 to 100 scale (0 no effect, 100 complete control)
[21] = preemergence, 31 g ai/ha, visual rating, scale 0 to 100 (0 no effect, 100 complete control), 13 to 15 days
[22] = preemergence, 62 g ai/ha, scale 0 to 100 (0 no effect, 100 complete control), 13 to 15 days
[23] = preemergence, 125 g ai/ha, 13 to 15 days, scale 0 to 100, 0 = no effect, 100 = complete control
[24] = preemergence, 250 g ai/ha, scale 0 to 100, 0 is no effect, 100 is complete control
[25] = Postemergence, 500 g ai/ha, visual rating after approx. 10 days, 0 to 100 scale (0 no effect, 100 complete control)
[26] = Preemergence, 500 g ai/ha, 0 no effect, 100 complete control
[27] = preemergence, 125 g ai/ha, visual injury, approx. 10 days
[28] = 125 g ai/ha, visual injury, 0 to 100 scale, approx. 10 days
[29] = 500 g ai/ha, visual injury after approx. 10 days, 0 to 100 scale (0 no effect, 100 complete control)
[30] = preemergence, 31 g ai/ha, scale 0 to 100 (0 no effect, 100 complete control), 13 to 15 days
[31] = preemergence, 62 g ai/ha, 13 to 15 days, scale 0 to 100, 0 = no effect, 100 = complete control
[32] = preemergence, 125 g ai/ha, scale 0 to 100, 0 is no effect, 100 is complete control
[33] = Preemergence, 16 g ai/ha, scale 0 to 100

CCCNC(=O)c1cc(OCC)n(Cc2ccnc(OC(F)F)c2)n1 [Compound 136]
Plant response rating (scale of 0 to 100 where 0 is no effect and 100 is complete control), Blackgrass ([1]; Postemergence, 31 g ai/ha): 5
Blackgrass plant response rating ([1]; postemergence, 62 g ai/ha): 10
Plant response rating, Blackgrass [1, 17]: 40
Plant response rating, Blackgrass [1, 18]: 15
Corn plant response rating [2, 19]: 100
Corn plant response rating [2, 20]: 60
Nutsedge, Yellow plant response rating [3, 21]: 30
Nutsedge, Yellow plant response rating [3, 22]: 35
Plant response rating, Nutsedge, Yellow [3, 23]: 50
Nutsedge, Yellow plant response rating [3, 24]: 85
Plant response rating (scale of 0 to 100 where 0 is no effect and 100 is complete control), Galium ([4]; Postemergence, 31 g ai/ha): 60
Galium plant response rating ([4]; postemergence, 62 g ai/ha): 60
Plant response rating, Galium [4, 17]: 80
Plant response rating, Galium [4, 18]: 60
Plant response rating (scale of 0 to 100 where 0 is no effect and 100 is complete control), Morningglory ([5]; Postemergence, 31 g ai/ha, visually evaluated after 13 to 15 days): 90
Morningglory plant response rating ([5]; postemergence, 62 g ai/ha): 98
Plant response rating, Morningglory [5, 17]: 100
Plant response rating, Morningglory [5, 18]: 95
Foxtail, Giant plant response rating [6, 19]: 100
Foxtail, Giant plant response rating [6, 20]: 90
Ryegrass, Italian plant response rating ([7]; 31 g ai/ha, visual rating, scale 0 to 100 (0 no effect, 100 complete control), 13 to 15 days): 55
Ryegrass, Italian plant response rating ([7]; 62 g ai/ha, scale 0 to 100 (0 no effect, 100 complete control), 13 to 15 days): 90
Plant response rating, Ryegrass, Italian ([7]; 125 g ai/ha, 13 to 15 days, scale 0 to 100, 0 = no effect, 100 = complete control): 95
Ryegrass, Italian plant response rating ([7]; 250 g ai/ha, scale 0 to 100, 0 is no effect, 100 is complete control): 95
Galium plant response rating [8, 21]: 85
Galium plant response rating [8, 22]: 100
Plant response rating, Galium [8, 23]: 100
Galium plant response rating [8, 24]: 100
Plant response rating (scale of 0 to 100 where 0 is no effect and 100 is complete control), Barnyardgrass ([9]; Postemergence, 31 g ai/ha): 5
Barnyardgrass plant response rating ([9]; postemergence, 62 g ai/ha): 5
Plant response rating, Barnyardgrass [9, 17]: 45
Plant response rating, Barnyardgrass [9, 18]: 5
Waterhemp plant response rating [10, 21]: 85
Waterhemp plant response rating [10, 22]: 100
Plant response rating, Waterhemp [10, 23]: 100
Waterhemp plant response rating [10, 24]: 100
Plant response rating (scale of 0 to 100 where 0 is no effect and 100 is complete control), Foxtail, Giant ([11]; Postemergence, 31 g ai/ha): 30
Foxtail, Giant plant response rating ([11]; postemergence, 62 g ai/ha): 30
Plant response rating, Foxtail, Giant [11, 17]: 70
Plant response rating, Foxtail, Giant [11, 18]: 40
Corn plant response rating [12, 21]: 35
Corn plant response rating [12, 22]: 70
Plant response rating, Corn [12, 23]: 60
Corn plant response rating [12, 24]: 85

CCCNC(=O)c1cc(CC)n(Cc2ccnc(C(F)(F)F)c2)n1 [Compound 75]
Plant response rating (scale of 0 to 100), Blackgrass ([1]; Postemergence): 5
Blackgrass plant response rating ([1]; Postemergence, 31 g ai/ha): 5
Blackgrass plant response rating ([1]; postemergence, 62 g ai/ha): 10
Plant response rating, Blackgrass [1, 18]: 15
Corn plant response rating [2, 25]: 90
Corn plant response rating [2, 20]: 80
Crabgrass, Large plant response rating [13, 26]: 100
Crabgrass, Large plant response rating [13, 27]: 100
Wheat plant response rating [14, 28]: 80
Wheat plant response rating [14, 29]: 100
Nutsedge, Yellow plant response rating [3, 30]: 55
Plant response rating, Nutsedge, Yellow [3, 31]: 75
Nutsedge, Yellow plant response rating [3, 32]: 85
Plant response rating (scale of 0 to 100), Galium ([4]; Postemergence): 50
Galium plant response rating ([4]; Postemergence, 31 g ai/ha): 60
Galium plant response rating ([4]; postemergence, 62 g ai/ha): 60
Plant response rating, Galium [4, 18]: 65
Morningglory plant response rating [15, 25]: 100
Morningglory plant response rating [15, 20]: 100
Plant response rating (scale of 0 to 100), Morningglory ([5]; Postemergence): 25
Morningglory plant response rating ([5]; Postemergence, 31 g ai/ha): 75
Morningglory plant response rating ([5]; postemergence, 62 g ai/ha): 80
Plant response rating, Morningglory [5, 18]: 98
Foxtail, Giant plant response rating [6, 25]: 100
Foxtail, Giant plant response rating [6, 20]: 90
Crabgrass, Large plant response rating [16, 25]: 100
Crabgrass, Large plant response rating [16, 20]: 100
Plant response rating, Galium [8, 33]: 90
Galium plant response rating [8, 30]: 100
Plant response rating, Galium [8, 31]: 100
Galium plant response rating [8, 32]: 100
Plant response rating (scale of 0 to 100), Barnyardgrass ([9]; Postemergence): 5
Barnyardgrass plant response rating ([9]; Postemergence, 31 g ai/ha): 10
Barnyardgrass plant response rating ([9]; postemergence, 62 g ai/ha): 10
Plant response rating, Barnyardgrass [9, 18]: 35
Plant response rating, Waterhemp [10, 33]: 80
Waterhemp plant response rating [10, 30]: 100
Plant response rating, Waterhemp [10, 31]: 100
Waterhemp plant response rating [10, 32]: 100
Plant response rating (scale of 0 to 100), Foxtail, Giant ([11]; Postemergence): 15
Foxtail, Giant plant response rating ([11]; Postemergence, 31 g ai/ha): 20
Foxtail, Giant plant response rating ([11]; postemergence, 62 g ai/ha): 25
Plant response rating, Foxtail, Giant [11, 18]: 50
Plant response rating, Corn [12, 33]: 10
Corn plant response rating [12, 30]: 60
Plant response rating, Corn [12, 31]: 98
Corn plant response rating [12, 32]: 100

CCONC(=O)c1cc(CC)n(Cc2ccnc(C(F)(F)F)c2)n1 [Compound 77]
Plant response rating (scale of 0 to 100), Blackgrass ([1]; Postemergence): 0
Plant response rating (scale of 0 to 100 where 0 is no effect and 100 is complete control), Blackgrass ([1]; Postemergence, 31 g ai/ha): 5
Blackgrass plant response rating ([1]; postemergence, 62 g ai/ha): 5
Plant response rating, Blackgrass [1, 18]: 5
Corn plant response rating [2, 25]: 40
Corn plant response rating [2, 20]: 30
Crabgrass, Large plant response rating [13, 26]: 100
Crabgrass, Large plant response rating [13, 27]: 100
Wheat plant response rating [14, 28]: 20
Wheat plant response rating [14, 29]: 40
Plant response rating, Nutsedge, Yellow [3, 33]: 10
Nutsedge, Yellow plant response rating [3, 30]: 10
Plant response rating, Nutsedge, Yellow [3, 31]: 25
Nutsedge, Yellow plant response rating [3, 32]: 60
Plant response rating (scale of 0 to 100), Galium ([4]; Postemergence): 5
Plant response rating (scale of 0 to 100 where 0 is no effect and 100 is complete control), Galium ([4]; Postemergence, 31 g ai/ha): 5
Galium plant response rating ([4]; postemergence, 62 g ai/ha): 15
Plant response rating, Galium [4, 18]: 20
Morningglory plant response rating [15, 25]: 90
Morningglory plant response rating [15, 20]: 100
Plant response rating (scale of 0 to 100), Morningglory ([5]; Postemergence): 10
Morningglory plant response rating ([5]; postemergence, 62 g ai/ha): 20
Plant response rating, Morningglory [5, 18]: 40
Foxtail, Giant plant response rating [6, 25]: 100
Foxtail, Giant plant response rating [6, 20]: 90
Crabgrass, Large plant response rating [16, 25]: 100
Crabgrass, Large plant response rating [16, 20]: 90
Plant response rating, Galium [8, 33]: 0
Galium plant response rating [8, 30]: 0
Plant response rating, Galium [8, 31]: 5
Galium plant response rating [8, 32]: 10
Plant response rating (scale of 0 to 100), Barnyardgrass ([9]; Postemergence): 0
Plant response rating (scale of 0 to 100 where 0 is no effect and 100 is complete control), Barnyardgrass ([9]; Postemergence, 31 g ai/ha): 0
Barnyardgrass plant response rating ([9]; postemergence, 62 g ai/ha): 5
Plant response rating, Barnyardgrass [9, 18]: 20
Plant response rating, Waterhemp [10, 33]: 70
Waterhemp plant response rating [10, 30]: 98
Plant response rating, Waterhemp [10, 31]: 98
Waterhemp plant response rating [10, 32]: 100
Plant response rating (scale of 0 to 100), Foxtail, Giant ([11]; Postemergence): 5
Plant response rating (scale of 0 to 100 where 0 is no effect and 100 is complete control), Foxtail, Giant ([11]; Postemergence, 31 g ai/ha): 5
Foxtail, Giant plant response rating ([11]; postemergence, 62 g ai/ha): 10
Plant response rating, Foxtail, Giant [11, 18]: 20
Plant response rating, Corn [12, 33]: 0
Corn plant response rating [12, 30]: 0
Plant response rating, Corn [12, 31]: 15
Corn plant response rating [12, 32]: 55
